Assay results as given in publication PMC9127750, “Structure-based design of CDC42 effector interaction inhibitors for the treatment of cancer” (Cell reports, 2022).
Values joined by “and” are separate entries in the source; they are usually repeats but may differ in a detail not shown here. Equal values may be shown once.

Tested on: WM3248 melanoma cells, 486 antibodies
Experiment: Reverse phase protein arrays (RPPA)
Format: cell-based, Human
Description: Pellets were snap frozen in liquid nitrogen and shipped to MD Anderson Cancer Center core RPPA facility for RPPA analysis (Table S5). Three biological replicates for each sample were generated.
Nomenclatures on the RPPA heatmaps: name_of_antibody.species_of_antibody.status_of_antibody. V - antibody validated; C - validation of antibody in progress; Q - antibody nonspecific; E – under evaluation; antibodies raised in M - mouse, G - goat, R - rabbit, or T - rat.

[1] = Norm_10, replicates 1-3 and Average, relative to Norm_0

Compound: CN(C)c1cccc(Nc2cc(-c3ccccc3)nc(C3CCNCC3)n2)c1 [ARN22089, N1,N1-dimethyl-N3-(6-phenyl-2-(piperidin-4-yl)pyrimidin-4-yl)benzene-1,3-diamine]
- A.Raf.R.V RPPA signal, normalized [1]: 1.018 and 0.886 and 0.845 and 0.916
- A.Raf_pS299.R.C RPPA signal, normalized [1]: 0.956 and 1.046 and 0.963 and 0.988
- ACC1.R.C RPPA signal, normalized [1]: 0.867 and 0.964 and 1.014
- ACC_pS79.R.V RPPA signal, normalized [1]: 1.238 and 0.635 and 0.956 and 0.943
- ACLY_pS455.R.V RPPA signal, normalized [1]: 1.247 and 1.003 and 1.249 and 1.166
- ACSL1.R.V RPPA signal, normalized [1]: 1.119 and 1.062 and 0.954
- ACVRL1.R.C RPPA signal, normalized [1]: 0.974 and 1.028 and 1.030
- ADAR1.M.V RPPA signal, normalized [1]: 1.080 and 1.272 and 0.921
- ALKBH5.R.V RPPA signal, normalized [1]: 1.021 and 1.291 and 1.103 and 1.138
- AMPK.a2_pS345.R.V RPPA signal, normalized [1]: 0.954 and 0.956 and 0.960
- AMPKa.R.C RPPA signal, normalized [1]: 1.010 and 0.920 and 1.002 and 0.977
- AMPKa_pT172.R.C RPPA signal, normalized [1]: 3.569 and 0.222 and 0.796 and 1.529
- AR.R.V RPPA signal, normalized [1]: 0.751 and 0.934 and 0.920
- ARID1A.R.C RPPA signal, normalized [1]: 1.114 and 1.573 and 0.868 and 1.185
- ASNS.R.V RPPA signal, normalized [1]: 1.340 and 0.994 and 0.954 and 1.096
- ATM.R.V RPPA signal, normalized [1]: 0.847 and 0.838 and 0.979 and 0.888
- ATM_pS1981.R.V RPPA signal, normalized [1]: 0.930 and 1.145
- ATP5A.M.C RPPA signal, normalized [1]: 1.031 and 1.371 and 1.971 and 1.457
- ATP5H.R.V RPPA signal, normalized [1]: 0.974 and 1.346 and 1.188 and 1.169
- ATR.R.V RPPA signal, normalized [1]: 0.962 and 1.081 and 1.002 and 1.015
- ATRX.R.C RPPA signal, normalized [1]: 0.876 and 0.968 and 0.978
- ATR_pS428.R.C RPPA signal, normalized [1]: 1.008 and 0.851 and 1.012 and 0.957
- AceCS1.R.V RPPA signal, normalized [1]: 1.235 and 1.121
- Akt1.R.V RPPA signal, normalized [1]: 0.800 and 0.756 and 1.156 and 0.904
- Akt1_pS473.R.V RPPA signal, normalized [1]: 0.892 and 0.682 and 1.059 and 0.878
- Akt2.R.V RPPA signal, normalized [1]: 0.829 and 0.768 and 1.018 and 0.872
- Akt2_pS474.R.C RPPA signal, normalized [1]: 1.011 and 0.801 and 0.950
- Akt.R.V RPPA signal, normalized [1]: 0.830 and 0.878 (2×) and 0.925
- Akt_pS473.R.V RPPA signal, normalized [1]: 2.128 and 0.984 and 1.238 and 1.450
- Akt_pT308.R.V RPPA signal, normalized [1]: 1.187 and 1.056 and 1.185 and 1.143
- Ambra1_pS52.R.C RPPA signal, normalized [1]: 0.964 (2×) and 1.015 and 0.981
- Annexin.I.M.V RPPA signal, normalized [1]: 0.849 and 0.987 and 1.005
- Annexin.VII.M.V RPPA signal, normalized [1]: 0.985 and 1.189 and 0.954
- Atg3.R.V RPPA signal, normalized [1]: 0.983 and 0.993 and 0.963
- Atg4B.R.C RPPA signal, normalized [1]: 0.966 and 1.004
- Atg5.R.C RPPA signal, normalized [1]: 0.905 and 0.930 and 0.971 and 0.935
- Atg7.R.V RPPA signal, normalized [1]: 0.958 and 0.891 and 0.903 and 0.917
- Aurora.A.R.C RPPA signal, normalized [1]: 0.694 and 1.245 and 1.028 and 0.989
- Aurora.ABC_pT288_pT232_pT198.R.C RPPA signal, normalized [1]: 1.548 and 0.847 and 0.955 and 1.117
- Aurora.B.R.V RPPA signal, normalized [1]: 1.012 and 1.271 and 1.347 and 1.210
- Axl.R.V RPPA signal, normalized [1]: 1.047 and 0.637 and 0.861 and 0.848
- B7.H3.R.C RPPA signal, normalized [1]: 0.961 and 0.915 and 0.940 and 0.939
- B7.H4.R.C RPPA signal, normalized [1]: 0.943 and 0.916 and 1.001 and 0.953
- B.Raf.R.C RPPA signal, normalized [1]: 0.738 and 0.844 and 1.157 and 0.913
- B.Raf_pS445.R.V RPPA signal, normalized [1]: 0.940 and 0.823 and 0.918 and 0.894
- BAP1.M.V RPPA signal, normalized [1]: 0.893 and 1.010 and 1.204
- BCL2A1.R.V RPPA signal, normalized [1]: 0.914 and 2.333 and 1.252 and 1.499
- BMK1.Erk5_pT218_Y220.R.V RPPA signal, normalized [1]: 0.935 and 0.870 and 0.918
- BRCA1.M.C RPPA signal, normalized [1]: 0.931 and 1.056 and 1.010
- BRD4.R.V RPPA signal, normalized [1]: 1.134 and 1.372 and 0.806 and 1.104
- Bad_pS112.R.V RPPA signal, normalized [1]: 1.129 and 0.968 and 1.064 and 1.054
- Bak.R.C RPPA signal, normalized [1]: 1.051 and 0.994 and 0.952 and 0.999
- Bax.R.V RPPA signal, normalized [1]: 0.935 and 1.085 and 1.013 and 1.011
- Bcl2.R.C RPPA signal, normalized [1]: 0.991 and 1.244 and 1.141 and 1.125
- Bcl.xL.R.V RPPA signal, normalized [1]: 0.890 and 1.164 and 1.151
- Beclin.R.C RPPA signal, normalized [1]: 0.901 and 1.245 and 1.080
- BiP.GRP78.M.C RPPA signal, normalized [1]: 0.879 and 1.117 and 1.006 and 1.001
- Bid.R.C RPPA signal, normalized [1]: 0.866 and 0.980 and 0.948 and 0.931
- Bim.R.V RPPA signal, normalized [1]: 0.847 and 0.884 and 0.890 and 0.874
- X4E.BP1.R.V RPPA signal, normalized [1]: 1.207 and 0.505 and 0.892 and 0.868
- X4E.BP1_pS65.R.V RPPA signal, normalized [1]: 0.934 and 1.191 and 1.054
- X4E.BP1_pT37_T46.R.V RPPA signal, normalized [1]: 0.921 and 1.081 and 1.234 and 1.079
- X14.3.3.zeta.R.V RPPA signal, normalized [1]: 1.058 and 1.063
- X14.3.3βR.V RPPA signal, normalized [1]: 0.989 and 1.030 and 1.010 (2×)
- X14.3.3εM.C RPPA signal, normalized [1]: 0.934 and 0.986 and 1.121 and 1.013
- X53BP1.R.V RPPA signal, normalized [1]: 0.994 and 0.931 and 0.923
- b.Actin.R.C RPPA signal, normalized [1]: 0.850 and 1.249 and 1.164
- b.Catenin.R.V RPPA signal, normalized [1]: 0.881 and 0.923
- b.Catenin_pT41_S45.R.V RPPA signal, normalized [1]: 1.016 and 0.989 and 1.006 and 1.004
- c.Abl.R.V RPPA signal, normalized [1]: 1.105 and 1.008 and 1.020
- c.Abl_pY412.R.C RPPA signal, normalized [1]: 0.873 and 0.871 and 0.928
- c.IAP2.R.C RPPA signal, normalized [1]: 1.099 and 1.057
- C.Raf.R.C normalized signal (Norm_10 Average): 0.862
- C.Raf_pS338.R.V normalized signal (Norm_10 Average): 0.971
- CA9.R.C normalized signal (Norm_10 Average): 0.943
- CD2.M.C normalized signal (Norm_10 Average): 0.963
- CD4.R.V normalized signal (Norm_10 Average): 0.931
- CD5.M.C normalized signal (Norm_10 Average): 1.007
- CD20.R.C normalized signal (Norm_10 Average): 1.296
- CD26.R.V normalized signal (Norm_10 Average): 1.007
- CD29.M.V normalized signal (Norm_10 Average): 0.953
